What was measured:
[1] = target: CSF-1R kinase (Homo sapiens (Human), UniProt P07333); test: CSF-1R kinase assay (AlphaScreen); format: biochemical
Procedure: Inhibition of CSF-1R kinase activity by a test compound disclosed herein was estimated by AlphaScreen (PerkinElmer). […] Reactions were incubated at 30° C. for 45 min and stopped by adding 5 μL of 50 mM EDTA. Analysis of resulting product using an AlphaScreen kit, and counted with Enspire Alpha (PerkinElmer). […] The IC50 values of quinoxaline compounds of this invention against CSF-1R kinase were determined using the GraphPad Prism 5 software.

[2] = target: c-KIT kinase (Homo sapiens (Human), UniProt P10721); test: c-KIT kinase assay (radiometric); format: biochemical
Chain of c-KIT kinase (P10721 26-976): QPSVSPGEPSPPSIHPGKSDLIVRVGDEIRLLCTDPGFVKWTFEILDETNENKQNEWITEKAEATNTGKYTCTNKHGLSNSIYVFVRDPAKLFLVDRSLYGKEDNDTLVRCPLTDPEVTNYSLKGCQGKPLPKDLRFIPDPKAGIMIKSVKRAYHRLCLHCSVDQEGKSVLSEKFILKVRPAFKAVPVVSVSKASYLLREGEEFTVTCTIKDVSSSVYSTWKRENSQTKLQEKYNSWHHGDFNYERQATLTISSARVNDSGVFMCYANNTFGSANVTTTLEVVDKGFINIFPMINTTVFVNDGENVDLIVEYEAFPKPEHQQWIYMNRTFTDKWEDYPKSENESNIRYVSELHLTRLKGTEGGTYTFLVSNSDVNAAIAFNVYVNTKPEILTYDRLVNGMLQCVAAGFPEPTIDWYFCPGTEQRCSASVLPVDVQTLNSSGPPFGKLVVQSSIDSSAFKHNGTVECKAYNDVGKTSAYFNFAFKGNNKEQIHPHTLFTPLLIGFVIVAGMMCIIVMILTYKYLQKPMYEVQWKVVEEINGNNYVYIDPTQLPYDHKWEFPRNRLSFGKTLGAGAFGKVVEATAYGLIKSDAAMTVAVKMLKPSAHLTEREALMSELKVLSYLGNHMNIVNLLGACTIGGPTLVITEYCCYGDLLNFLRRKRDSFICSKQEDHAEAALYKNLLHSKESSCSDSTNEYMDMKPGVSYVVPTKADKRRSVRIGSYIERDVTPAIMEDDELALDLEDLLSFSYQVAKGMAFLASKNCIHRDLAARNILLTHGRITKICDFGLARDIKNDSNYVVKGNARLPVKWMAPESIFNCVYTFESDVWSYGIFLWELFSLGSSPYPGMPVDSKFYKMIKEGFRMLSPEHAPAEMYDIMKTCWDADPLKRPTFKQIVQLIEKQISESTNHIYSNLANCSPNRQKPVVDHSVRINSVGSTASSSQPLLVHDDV
Procedure: (§1) Inhibition of c-KIT kinase activity by a test compound disclosed herein was estimated by radiometric assay. Standard assay conditions were 20 ng of recombinant c-Kit (SignalChem) with 2 μg of substrate Poly-(Glu 4:Tyr 1) (sigma) in the assay buffer in kinase reaction buffer (10 mM MOPS pH 7.0, 0.21 mM EDTA, 0.5% glycerol, 0.001% Brij-35, 0.01 2-mercaptoehtanol, 1 mg/ml BSA, 10 mM MgCl2, 10 mM MnCl2, 10 μM ATP, 0.1 μCi per well [^33P]-ATP, in the presence of test compound (diluted in final concentration of 4% DMSO) or DMSO control, with a final volume of 25 μl for 60 minutes at 30° C. The reaction was stopped by adding 5 μl of 3% phosphoric acid solution. Total reaction solution was then harvested onto a filter plate (UniFilter-96 GF/B, PerkinElmer), and washed 20 times for 5 min with dH2O. 30 μl of MicroScint™-20 Cocktail (PerkinElmer) was added to dried plate. The plate was sealed and counted using a TopCount scintillation detector (PerkinElmer). […] The IC50 values of quinoxaline compounds of this invention against c-KIT kinase were determined using the GraphPad Prism 5 software.
(§2) The IC50 values for selected quinoxaline compounds of this invention against CSF-1R, c-KIT, FLT3, and PDGFRβ are summarized in Table 3.

[3] = target: PDGFRβ kinase (Homo sapiens (Human), UniProt P09619); test: PDGFRβ kinase assay (radiometric); format: biochemical; conditions: bound
Chain of PDGFRβ kinase (P09619 33-1106): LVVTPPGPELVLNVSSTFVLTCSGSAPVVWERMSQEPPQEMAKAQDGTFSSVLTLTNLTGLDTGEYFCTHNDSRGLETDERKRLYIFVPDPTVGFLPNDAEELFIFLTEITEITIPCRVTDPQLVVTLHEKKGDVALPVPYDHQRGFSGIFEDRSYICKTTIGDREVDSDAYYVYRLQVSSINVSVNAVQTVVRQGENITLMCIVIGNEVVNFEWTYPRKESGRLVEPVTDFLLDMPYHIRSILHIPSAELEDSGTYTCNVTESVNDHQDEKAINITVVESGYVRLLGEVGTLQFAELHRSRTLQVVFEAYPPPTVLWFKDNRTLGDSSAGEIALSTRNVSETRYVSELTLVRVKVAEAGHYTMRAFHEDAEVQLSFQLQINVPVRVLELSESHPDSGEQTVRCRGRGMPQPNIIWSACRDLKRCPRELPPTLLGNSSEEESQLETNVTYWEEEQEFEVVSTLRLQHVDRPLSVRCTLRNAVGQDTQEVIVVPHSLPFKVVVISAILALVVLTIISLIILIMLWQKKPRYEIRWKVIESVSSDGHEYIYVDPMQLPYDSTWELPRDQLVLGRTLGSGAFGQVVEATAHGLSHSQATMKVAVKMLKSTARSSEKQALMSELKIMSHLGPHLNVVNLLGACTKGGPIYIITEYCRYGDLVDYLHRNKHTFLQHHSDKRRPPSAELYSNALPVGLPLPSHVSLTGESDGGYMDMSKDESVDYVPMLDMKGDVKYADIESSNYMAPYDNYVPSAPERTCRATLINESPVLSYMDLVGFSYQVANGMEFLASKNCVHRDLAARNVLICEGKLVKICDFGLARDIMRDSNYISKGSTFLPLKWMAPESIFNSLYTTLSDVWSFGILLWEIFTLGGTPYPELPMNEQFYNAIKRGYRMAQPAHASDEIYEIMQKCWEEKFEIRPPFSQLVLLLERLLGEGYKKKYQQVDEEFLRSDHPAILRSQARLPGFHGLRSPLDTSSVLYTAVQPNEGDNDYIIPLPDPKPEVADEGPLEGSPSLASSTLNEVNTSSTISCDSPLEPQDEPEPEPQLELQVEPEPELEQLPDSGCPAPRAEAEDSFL
Procedure: as §1, with “of PDGFRβ” for “of c-KIT”, “were 10” for “were 20”, “recombinant PDGFRβ” for “recombinant c-Kit”, “well [^33P]-ATP),” for “well [^33P]-ATP,”, “against PDGFRβ” for “against c-KIT”
as §2

[4] = target: FLT3 kinase (Homo sapiens (Human), UniProt P36888); test: FLT3 kinase assay (radiometric); format: biochemical
Chain of FLT3 kinase (P36888 27-993): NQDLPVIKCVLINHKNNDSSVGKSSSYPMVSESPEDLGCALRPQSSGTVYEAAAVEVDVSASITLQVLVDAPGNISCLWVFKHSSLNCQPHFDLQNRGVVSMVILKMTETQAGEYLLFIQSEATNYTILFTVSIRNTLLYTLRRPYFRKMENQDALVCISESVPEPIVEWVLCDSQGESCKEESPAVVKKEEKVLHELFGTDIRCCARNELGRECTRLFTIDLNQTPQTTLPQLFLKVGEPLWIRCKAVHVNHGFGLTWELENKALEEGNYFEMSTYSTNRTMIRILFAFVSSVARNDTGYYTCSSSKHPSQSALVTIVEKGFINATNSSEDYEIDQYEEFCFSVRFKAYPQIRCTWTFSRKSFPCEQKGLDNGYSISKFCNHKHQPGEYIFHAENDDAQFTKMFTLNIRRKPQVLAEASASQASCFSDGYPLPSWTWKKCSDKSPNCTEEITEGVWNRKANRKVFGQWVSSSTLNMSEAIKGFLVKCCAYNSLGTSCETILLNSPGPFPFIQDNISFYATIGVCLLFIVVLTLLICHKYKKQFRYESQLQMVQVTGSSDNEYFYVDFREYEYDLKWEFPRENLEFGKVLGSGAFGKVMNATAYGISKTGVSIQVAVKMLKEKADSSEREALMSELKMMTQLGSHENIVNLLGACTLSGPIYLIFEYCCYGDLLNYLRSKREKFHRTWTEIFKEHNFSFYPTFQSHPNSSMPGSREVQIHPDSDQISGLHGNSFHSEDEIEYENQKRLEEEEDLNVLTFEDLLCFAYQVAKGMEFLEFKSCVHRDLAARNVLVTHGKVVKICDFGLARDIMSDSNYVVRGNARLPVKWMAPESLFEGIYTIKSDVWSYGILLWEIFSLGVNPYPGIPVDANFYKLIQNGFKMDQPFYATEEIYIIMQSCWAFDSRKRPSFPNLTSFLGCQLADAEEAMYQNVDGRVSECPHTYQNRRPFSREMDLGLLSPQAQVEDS
Procedure: as §1, with “of FLT3” for “of c-KIT”, “were 5” for “were 20”, “recombinant FLT3 (Thermo Fisher)” for “recombinant c-Kit (SignalChem)”, “BSA, MgCl2” for “BSA,”, “10 mM,” for “10 mM MgCl2, 10 mM MnCl2,”, “against FLT3” for “against c-KIT”
as §2

[5] = tested on: THP-1 human acute monocytic leukemia cell harboring NRAS G12D mutation; test: THP-1 cell proliferation assay (counter screen, CellTiter-96); format: cell-based; conditions: Cytotoxicity, THP-1 cells (counter screen), 72 hours
Procedure: (§3) Inhibition of cell growth by compounds was measured using CellTiter™-96 assay. The cytotoxicity of compounds was evaluated in CSF-1-dependent M-NFS-60 mouse myeloid leukemia cell, FLT3 signal addicted MV4-11 human acute myeloid leukemia cell with FLT3-ITD mutation, c-KIT signal addicted Kasumi-1 human acute myeloid leukemia cell with c-KIT N822K activating mutation, and THP-1 human acute monocytic leukemia cell harboring NRAS G12D mutation.
THP-1 human acute monocytic leukemia cells harbor NRAS G12D mutation, which renders cell proliferate independently of class III RTKs signal. […] Cells were allowed to expand until reaching saturation at which point they were subcultured or harvested for assay use.
(§4) M-NFS-60, Kasumi-1, MV4-11 and THP-1 cells were seeded into 96-well plates at 2000, 64000, 6500, and 5000 cells/well, respectively, and incubated at 37° C., 5% CO2 overnight. Then, these seeded cells were treated with increasing concentrations of the test compounds and incubated for another 72 hours. At the end of the incubation, CellTiter96® AQueous One Solution Reagent (Promega) was added and incubated for 4 hours. Cell viability was determined by measuring absorbance at 490 nm using EMax® microplate reader (Molecular Devices).

[6] = tested on: MV4-11 human acute myeloid leukemia cell with FLT3-ITD mutation; test: MV4-11 cell proliferation assay (CellTiter-96); format: cell-based; conditions: Cytotoxicity, MV4-11 cells, 72 hours
Procedure: as §3
(§5) The compounds disclosed herein were tested in MV4-11 cell proliferation assay to determine their cellular potency against FLT3 kinase. MV4-11 human acute myeloid leukemia cells harbor ligand-independent FLT3-ITD activating mutation, which render its proliferation FLT3-ITD dependent. Inhibition of FLT3 kinase activity will cause reduced growth and/or cell death. […] Cells were allowed to expand until reaching saturation at which point they were subcultured or harvested for assay use.
as §4

[7] = tested on: CSF-1-dependent M-NFS-60 mouse myeloid leukemia cell; test: M-NFS-60 cell proliferation assay (CellTiter-96); format: cell-based; conditions: Cytotoxicity, M-NFS-60 cells, 72 hours
Procedure: as §3
The compounds disclosed herein were tested in M-NFS-60 cell proliferation assay to determine their cellular potency against CSF-1R. […] Inhibition of CSF-1R kinase activity will cause reduced growth and/or cell death. […] Cells were allowed to expand until reaching saturation at which point they were subcultured or harvested for assay use.
as §4

[8] = tested on: Kasumi-1 human acute myeloid leukemia cell with c-KIT N822K activating mutation; test: Kasumi-1 cell proliferation assay (CellTiter-96); format: cell-based; conditions: Cytotoxicity, Kasumi-1 cells, 72 hours
Procedure: as §3
as §5, with “Kasumi” for “MV4-11”, “c-KIT” for “FLT3”, “N822K c-KIT” for “FLT3-ITD”, “thus the cell” for “which render its”, “relied on c-KIT signal.” for “FLT3-ITD dependent.”
as §4

Chain of CSF-1R kinase (P07333 20-972): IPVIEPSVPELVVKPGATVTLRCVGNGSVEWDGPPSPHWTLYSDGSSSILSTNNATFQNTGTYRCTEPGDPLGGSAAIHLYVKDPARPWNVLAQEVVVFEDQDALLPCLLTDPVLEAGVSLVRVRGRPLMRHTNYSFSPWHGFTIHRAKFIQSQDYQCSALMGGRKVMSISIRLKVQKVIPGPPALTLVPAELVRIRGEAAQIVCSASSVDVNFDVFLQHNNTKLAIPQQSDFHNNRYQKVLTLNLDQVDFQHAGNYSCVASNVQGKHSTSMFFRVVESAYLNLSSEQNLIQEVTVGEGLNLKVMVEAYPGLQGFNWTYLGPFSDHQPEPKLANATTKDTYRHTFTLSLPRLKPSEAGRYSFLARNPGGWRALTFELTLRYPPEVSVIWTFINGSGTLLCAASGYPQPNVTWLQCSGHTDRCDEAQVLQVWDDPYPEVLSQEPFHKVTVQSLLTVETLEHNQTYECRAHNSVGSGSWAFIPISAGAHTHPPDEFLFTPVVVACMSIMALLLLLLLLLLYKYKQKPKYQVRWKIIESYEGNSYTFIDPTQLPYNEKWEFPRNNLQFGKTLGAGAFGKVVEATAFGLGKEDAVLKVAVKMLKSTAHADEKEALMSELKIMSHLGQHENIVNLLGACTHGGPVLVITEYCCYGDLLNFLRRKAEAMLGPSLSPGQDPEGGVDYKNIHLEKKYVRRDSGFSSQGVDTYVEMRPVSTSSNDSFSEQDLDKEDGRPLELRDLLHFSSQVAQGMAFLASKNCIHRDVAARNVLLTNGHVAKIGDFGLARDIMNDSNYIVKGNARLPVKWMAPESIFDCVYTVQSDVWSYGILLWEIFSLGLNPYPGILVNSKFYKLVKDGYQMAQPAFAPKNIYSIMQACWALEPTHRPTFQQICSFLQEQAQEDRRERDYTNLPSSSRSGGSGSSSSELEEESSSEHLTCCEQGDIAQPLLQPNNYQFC

| IC50 ([1]; class symbol) [nM] | IC50 ([2]; class symbol) [nM] | IC50 [3] [nM] | IC50 ([4]; bound) [nM] | IC50 ([1]; bound) [nM] | IC50 ([2]; bound) [nM] | IC50 ([4]; class symbol) [nM] | SMILES | IC50 [5] [nM] | IC50 [6] [nM] | IC50 [7] [nM] | IC50 [8] [nM] |
| --- | --- | --- | --- | --- | --- | --- | --- | --- | --- | --- | --- |
| 300 to 1000 | 100 to 300 | > 1000 | > 1000 |  |  |  | COc1ccc(COc2ccc(Nc3ccc4ncc(OC)nc4c3C#N)cc2OC)cc1 [Example 3, 3-methoxy-6-((3-methoxy-4-((4-methoxybenzyl)oxy)phenyl)amino)quinoxaline-5-carbonitrile] |  |  |  |  |
|  | 300 to 1000 | > 1000 | > 1000 | > 1000 |  |  | COc1cnc2ccc(Nc3ccc(NCc4ccc(C(F)(F)F)cc4)nc3)c(C#N)c2n1 [Example 4, 3-methoxy-6-((6-((4-(trifluoromethyl)benzyl)amino)pyridin-3-yl)amino)quinoxaline-5-carbonitrile] | > 10000 | 1000 to 10000 | > 10000 | 1000 to 10000 |
| 100 to 300 |  | > 1000 | > 1000 |  | > 1000 |  | COc1ccc(COc2ccc(Nc3ccc4ncc(OC)nc4c3)cc2OC)cc1 [Example 5, 3-methoxy-N-(3-methoxy-4-((4-methoxybenzyl)oxy)phenyl)quinoxalin-6-amine] | > 10000 | 1000 to 10000 | 1000 to 10000 | 1000 to 10000 |
| 100 to 300 | 300 to 1000 | > 1000 | > 1000 |  |  |  | COc1ccc(COc2ccc(Nc3ccc4ncc(OCCN(C)C)nc4c3C#N)cc2OC)cc1 [Example 13, 3-(2-(dimethylamino)ethoxy)-6-((3-methoxy-4-((4-methoxybenzyl)oxy)phenyl)amino)quinoxaline-5-carbonitrile] | 1000 to 10000 | 1000 to 10000 | 1000 to 10000 | 1000 to 10000 |
| 300 to 1000 | < 100 | > 1000 | > 1000 |  |  |  | CCOc1ccc(COc2ccc(Nc3ccc4ncc(OC)nc4c3C#N)cc2OC)cc1 [Example 20, 6-((4-((4-ethoxybenzyl)oxy)-3-methoxyphenyl)amino)-3-methoxyquinoxaline-5-carbonitrile] | > 10000 | > 10000 | > 10000 | 1000 to 10000 |
| 300 to 1000 | 100 to 300 | > 1000 | > 1000 |  |  |  | COc1cc(Nc2ccc3ncc(N4CCOCC4)nc3c2C#N)ccc1OCC1CC1 [Example 36, 6-((4-(cyclopropylmethoxy)-3-methoxyphenyl)amino)-3-morpholinoquinoxaline-5-carbonitrile] | > 10000 | 1000 to 10000 | > 10000 | 300 to 1000 |
|  | 100 to 300 | > 1000 | > 1000 | > 1000 |  |  | COc1ccc(CNc2ccc(Nc3ccc4ncc(N5CCOCC5)nc4c3C#N)cc2OC)cc1 [Example 39, 6-((3-methoxy-4-((4-methoxybenzyl)amino)phenyl)amino)-3-morpholinoquinoxaline-5-carbonitrile] | > 10000 | 1000 to 10000 | > 10000 | 300 to 1000 |
|  | 300 to 1000 | > 1000 | > 1000 | > 1000 |  |  | COc1cc(Nc2ccc3ncc(N4CCOCC4)nc3c2C#N)ccc1OCc1cncn1C [Example 55, 6-((3-methoxy-4-((1-methyl-1H-imidazol-5-yl)methoxy)phenyl)amino)-3-morpholinoquinoxaline-5-carbonitrile] |  |  |  |  |
|  | 300 to 1000 | > 1000 | > 1000 | > 1000 |  |  | COc1cc(Nc2ccc3ncc(N4CCOCC4)nc3c2C#N)ccc1OCc1ccccn1 [Example 57, 6-((3-methoxy-4-(pyridin-2-ylmethoxy)phenyl)amino)-3-morpholinoquinoxaline-5-carbonitrile] |  |  |  |  |
| < 100 |  | > 1000 | > 1000 |  | > 1000 |  | COc1ccc(COc2ccc(Nc3ccc4ncc(-n5ccnc5)nc4c3C#N)cc2OC)cn1 [Example 70, 3-(1H-imidazol-1-yl)-6-((3-methoxy-4-((6-methoxypyridin-3-yl)methoxy)phenyl)amino)quinoxaline-5-carbonitrile] |  |  |  |  |
| 100 to 300 |  | > 1000 | > 1000 |  | > 1000 |  | COc1cnc2ccc(Nc3ccc(OCc4ccc(OC)c(C#N)c4)c(OC)c3)c(C#N)c2n1 [Example 140, 6-((4-((3-cyano-4-methoxybenzyl)oxy)-3-methoxyphenyl)amino)-3-methoxyquinoxaline-5-carbonitrile] |  |  |  |  |
|  | 100 to 300 |  |  |  |  | 100 to 300 | COc1cc(Nc2ccc3ncc(N4CCOCC4)nc3c2C#N)ccc1OCc1ccc(C)[n+]([O-])c1 [Example 146, 6-((3-methoxy-4-((6-methyl-1-(λ^1-oxidaneyl)-1λ^4-pyridin-3-yl)methoxy)phenyl)amino)-3-morpholinoquinoxaline-5-carbonitrile] | > 10000 | 1000 to 10000 | 1000 to 10000 | 1000 to 10000 |

Reference: US10689362B2, “Quinoxaline compounds as type III receptor tyrosine kinase inhibitors” (Development Center for Biotechnology, priority 2016, dated 2020)
